Results taken from ChEMBL document CHEMBL1130305, “The design and synthesis of orally active short duration spiroindane growth hormone secretagogues” (Bioorg Med Chem Lett, 1997).

Columns and labels:
Canis familiaris [1] = experiment: Compound was evaluated for the lowest dose where fourfold elevations over basal GH levels were observed in Beagle dog model after intravenous dose of 0.025 mpk and 0.125 mpk oral dose; 6/8; type: functional, Canis lupus familiaris
Canis familiaris [2] = organism: Canis familiaris; experiment: Compound was evaluated for the lowest dose where fourfold elevations over basal GH levels were observed in Beagle dog model after peroral dose of 0.25 mpk; 8/8; type: functional, Canis lupus familiaris
[3] = half life was evaluated; type: ADME
Canis familiaris [4] = organism: Canis familiaris; experiment: Compound was evaluated for the lowest dose where fourfold elevations over basal GH levels were observed in Beagle dog model after peroral dose of 0.5 mpk; 4/4; type: functional, Canis lupus familiaris
Canis familiaris [5] = organism: Canis familiaris; experiment: Compound was evaluated for the lowest dose where fourfold elevations over basal GH levels were observed in Beagle dog model after peroral dose of 0.25 mpk; 2/5; type: functional, Canis lupus familiaris
Canis familiaris [6] = experiment: Compound was evaluated for the lowest dose where fourfold elevations over basal GH levels were observed in Beagle dog model after intravenous dose of 0.025 mpk and 0.125 mpk oral dose; 1/2; type: functional, Canis lupus familiaris
Canis familiaris [7] = experiment: Compound was evaluated for percentage of growth hormone of day1 response, after chronic oral dosing at 1.0 mpk on day 4; type: functional, Canis lupus familiaris
Canis familiaris [8] = experiment: Compound was evaluated for percentage of increase in IGF-1 levels, after chronic oral dosing at 1.0 mpk on day 4; type: functional, Canis lupus familiaris
Canis familiaris [9] = organism: Canis familiaris; experiment: Compound was evaluated for the lowest dose where fourfold elevations over basal GH levels were observed in Beagle dog model after peroral dose of 0.25 mpk; 5/8; type: functional, Canis lupus familiaris
[10] = Compound was evaluated for its absorption in the rats; type: ADME, organism-based; details: rat, in vivo; read-out: Absorption
[11] = Compound was evaluated for its bioavailability in the rats; type: ADME, organism-based; details: rat, in vivo; read-out: Bioavailabiility
[12] = Compound was evaluated for its bioavailability in the dogs; type: ADME, organism-based, Canis lupus familiaris; details: dog, in vivo; read-out: Bioavailabiility
Canis familiaris [13] = experiment: Compound was evaluated for percentage of increase in IGF-1 levels, after chronic oral dosing at 0.5 mpk on day 4; type: functional, Canis lupus familiaris
Canis familiaris [14] = experiment: Compound was evaluated for percentage of growth hormone of day1 response, after chronic oral dosing at 0.5 mpk on day 4; type: functional, Canis lupus familiaris
Canis familiaris [15] = organism: Canis familiaris; experiment: Compound was evaluated for the lowest dose where fourfold elevations over basal GH levels were observed in Beagle dog model after peroral dose of 0.25 mpk; 1/1; type: functional, Canis lupus familiaris
Canis familiaris [16] = organism: Canis familiaris; experiment: Compound was evaluated for the lowest dose where fourfold elevations over basal GH levels were observed in Beagle dog model after peroral dose of 0.5 mpk; 1/2; type: functional, Canis lupus familiaris
Canis familiaris [17] = organism: Canis familiaris; experiment: Compound was evaluated for the lowest dose where fourfold elevations over basal GH levels were observed in Beagle dog model after peroral dose of 0.5 mpk; 2/2; type: functional, Canis lupus familiaris

Work on `CC(C)(N)C(=O)N[C@H](COCc1ccccc1)C(=O)N1CCC2(CC1)CN(S(C)(=O)=O)c1ccccc12.Cl` yielded a Responders (Canis familiaris [1]) of 6, a Responders (Canis familiaris [2]) of 8 and a half-life [3] of 4.8 h.
With `CCOC(=O)C[C@@H]1CC2(CCN(C(=O)[C@@H](CCCc3ccccc3)NC(=O)C(C)(C)N)CC2)c2ccccc21.Cl` the Responders (Canis familiaris [4]) was 4 and the Responders (Canis familiaris [5]) was 2.
Molecule `CCOC(=O)[C@H]1CC2(CCN(C(=O)[C@@H](CCCc3ccccc3)NC(=O)C(C)(C)N)CC2)c2ccccc21.Cl` has a Responders (Canis familiaris [6]) of 1, a GH (Canis familiaris [7]) of 80% and an Increase (Canis familiaris [8]) of 45%. It also gave a Responders (Canis familiaris [9]) of 5, a Fa [10] of over 50% and a bioavailability [11] of 4.5%. It also gave a bioavailability [12] of 11.8%, an Increase (Canis familiaris [13]) of 65% and a GH (Canis familiaris [14]) of 65%.
`CC(C)(N)C(=O)N[C@H](CCCc1ccccc1)C(=O)N1CCC2(CC1)C[C@H](C(=O)O)c1ccccc12.Cl` gave a Responders (Canis familiaris [15]) of 1, a Responders (Canis familiaris [16]) of 1 and a half-life [3] of 1.7 h.
`CC(C)(N)C(=O)N[C@H](CCCc1ccccc1)C(=O)N1CCC2(CC1)C[C@@H](CC(=O)O)c1ccccc12.Cl` showed a Responders (Canis familiaris [17]) of 2.
